Entries after “also recorded” stand apart in the source; their conditions may differ. Where two headings read alike, the source gives them in different places.
How the values were obtained:
[1] = test system: L5 SNL rats, tactile allodynia; assay: L5-Single Nerve Ligation model of neuropathic pain (von Frey); format: in vivo, rat; conditions: 30 mg/kg; for antiallodynic activity: i.p.
Experimental: Protocol. […] The test animals were placed in a Plexiglas chamber (10 cm×20 cm×25 cm) and habituated for 15 minutes. The chamber was positioned on top of a mesh screen so that von Frey monofilaments could be presented to the plantar surface of both hindpaws. Measurement of tactile sensitivity for each hindpaw were obtained using the up/down method (Dixon, 1980) with seven Frey monofilaments (0.4, 1, 2, 4, 6, 8 and 15 grams). Each trial started with a von Frey force of 2 grams delivered to the right hindpaw for approximately 1-2 seconds and then the left hindpaw. If there was no withdrawal response, the next higher force was delivered. If there was a response, the next lower force was delivered. This procedure was performed until no response was made at the highest force (15 grams) or until four stimuli were administered following the initial response. Each test group contained 8 animals. The sham-operated control group, which were operated on but not subject to nerve ligation, contained 4 animals. All animals were tested at 60 minutes, and 240 minutes, post-administration of test compounds.
The 50% paw withdrawal threshold for each paw was calculated using the following formula: [Xth] log=[vFr] log+ky where [vFr] is the force of the last von Frey used, k=0.2249 which is the average interval (in log units) between the von Frey monofilaments, and y is a value that depends upon the pattern of withdrawal responses (Dixon, 1980). […] Testing for tactile sensitivity was performed twice and the mean 50% withdrawal value assigned as the tactile sensitivity for the right and left paws for each animal.
The E-10-OH-NT compounds were administered as either a maleate or succinate salt. AT was administered as a hydrochloride salt. Dosage amounts are based on the amount of free base. The test animals were placed in a Plexiglas chamber (10 cm×20 cm×25 cm) and habituated for 15 minutes. The chamber was positioned on top of a mesh screen so that von Frey monofilaments could be presented to the plantar surface of both hindpaws. Measurement of tactile sensitivity for each hindpaw were obtained using the up/down method (Dixon, 1980) with seven Frey monofilaments (0.4, 1, 2, 4, 6, 8 and 15 grams). Each trial started with a von Frey force of 2 grams delivered to the right hindpaw for approximately 1-2 seconds and then the left hindpaw. If there was no withdrawal response, the next higher force was delivered. If there was a response, the next lower force was delivered. This procedure was performed until no response was made at the highest force (15 grams) or until four stimuli were administered following the initial response. Each test group contained 8 animals. The sham-operated control group, which were operated on but not subject to nerve ligation, contained 4 animals. […]

[2] = molecular target: T1, 5HT uptake, rat brain synaptosomes (Rattus norvegicus, UniProt P31652); assay: Inhibition of [3H]-5HT uptake into synaptosomes; format: biochemical; conditions: read-out: Monoamine Uptake Inhibition, 5HT, IC50
T1 construct: into rat brain synaptosomes; from tissue; host or cells: rat brain synaptosomes
T1 sequence (P31652 whole entry): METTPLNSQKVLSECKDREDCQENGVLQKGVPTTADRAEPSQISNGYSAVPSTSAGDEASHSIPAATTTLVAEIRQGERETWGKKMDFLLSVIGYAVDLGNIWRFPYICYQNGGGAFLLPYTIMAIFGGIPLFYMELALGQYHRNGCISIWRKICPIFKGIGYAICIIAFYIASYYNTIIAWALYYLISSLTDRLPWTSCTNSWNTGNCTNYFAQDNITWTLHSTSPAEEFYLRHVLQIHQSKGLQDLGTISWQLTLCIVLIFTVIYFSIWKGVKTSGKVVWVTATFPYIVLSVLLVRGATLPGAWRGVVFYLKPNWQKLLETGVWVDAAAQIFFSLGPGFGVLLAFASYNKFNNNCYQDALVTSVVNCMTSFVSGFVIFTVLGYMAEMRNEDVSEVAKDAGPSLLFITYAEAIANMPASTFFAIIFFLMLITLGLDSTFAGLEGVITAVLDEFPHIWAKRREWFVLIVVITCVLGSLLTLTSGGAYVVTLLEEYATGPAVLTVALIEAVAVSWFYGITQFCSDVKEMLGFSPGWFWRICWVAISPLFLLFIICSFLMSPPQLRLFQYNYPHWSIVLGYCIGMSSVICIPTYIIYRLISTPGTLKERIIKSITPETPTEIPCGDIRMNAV

[3] = molecular target: T2, human H1 histaminergic receptor (Homo sapiens, UniProt P35367); assay: H1 histaminergic receptor competitive binding assay, [3H]pyrilamine; conditions: for reduction of H1 histaminergic receptor affinity compared to AT: relative to AT; for reduction of H1 histaminergic receptor affinity compared to NT: relative to NT
T2 construct: expressed in transfected cells; host or cells: HEK-293 cells (membranes)
T2 sequence (P35367 whole entry): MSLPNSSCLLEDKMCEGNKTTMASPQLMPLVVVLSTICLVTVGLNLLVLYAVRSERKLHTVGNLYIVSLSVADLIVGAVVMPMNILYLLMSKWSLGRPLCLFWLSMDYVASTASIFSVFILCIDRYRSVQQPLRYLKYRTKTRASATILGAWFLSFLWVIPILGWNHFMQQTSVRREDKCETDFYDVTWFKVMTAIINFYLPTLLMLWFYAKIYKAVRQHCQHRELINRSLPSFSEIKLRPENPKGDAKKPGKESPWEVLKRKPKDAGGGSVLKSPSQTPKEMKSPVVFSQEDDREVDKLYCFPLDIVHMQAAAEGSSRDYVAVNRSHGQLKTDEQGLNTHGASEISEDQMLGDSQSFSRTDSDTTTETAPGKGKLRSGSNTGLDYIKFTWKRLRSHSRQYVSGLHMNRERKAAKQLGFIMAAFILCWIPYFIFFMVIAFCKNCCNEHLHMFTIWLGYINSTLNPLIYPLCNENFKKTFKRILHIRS
Experimental: Protocol. The affinities of AT, NT, (+)-E-10-OH-NT and (−)-E-10-OH-NT for the H1 histaminergic receptor were assessed in a competitive binding assay. For the assay, [^3H]pyrilamine (3 nM) was incubated with various concentrations of test compound for 1 hour at 22° C. with membranes prepared from human embryonic kidney (HEK-293) cells heterologously expressing the cloned human H1 histaminergic receptor. Bound radioactivity was determined by scintillation spectroscopy. Non-specific binding was defined as the amount of binding that occurred in the presence of 1.0 μM unlabeled pyrilamine.

[4] = molecular target: T3, human serotonin transporter (hSERT) (Homo sapiens, UniProt P31645); assay: 5HT transporter competitive binding assay, [3H]imipramine
T3 construct: expressed in transfected cells; host or cells: CHO cells (membranes)
T3 sequence (P31645 whole entry): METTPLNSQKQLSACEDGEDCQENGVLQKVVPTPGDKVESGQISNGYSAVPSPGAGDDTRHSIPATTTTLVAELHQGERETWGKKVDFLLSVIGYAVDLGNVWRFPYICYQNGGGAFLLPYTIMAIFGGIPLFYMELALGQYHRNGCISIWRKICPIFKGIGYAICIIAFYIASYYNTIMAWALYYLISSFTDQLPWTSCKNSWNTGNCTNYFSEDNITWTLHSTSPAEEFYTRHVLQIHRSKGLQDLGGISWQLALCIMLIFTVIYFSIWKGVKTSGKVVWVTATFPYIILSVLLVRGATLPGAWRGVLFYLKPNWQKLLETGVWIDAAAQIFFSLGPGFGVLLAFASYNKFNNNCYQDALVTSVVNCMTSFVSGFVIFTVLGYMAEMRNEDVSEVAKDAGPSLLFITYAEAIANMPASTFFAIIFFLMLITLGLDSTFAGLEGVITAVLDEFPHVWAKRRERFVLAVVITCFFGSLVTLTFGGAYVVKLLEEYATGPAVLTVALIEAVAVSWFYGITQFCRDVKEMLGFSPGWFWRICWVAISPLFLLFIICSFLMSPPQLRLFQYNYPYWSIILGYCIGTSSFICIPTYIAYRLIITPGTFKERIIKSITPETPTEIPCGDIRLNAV
Experimental: (§1) Bound radioactivity was determined by scintillation spectroscopy. […] The Ki values of the various test compounds were determined using standard methods.
as §1

[5] = molecular target: T4, human muscarinic receptor M1 (Homo sapiens, UniProt P11229); assay: Muscarinic M1 receptor binding, [3H]pirenzepine; conditions: read-out: Affinity for Muscarinic Receptors, M1, Ki
T4 construct: expressed in transfected cells; host or cells: CHO cells (membranes)
T4 sequence (P11229 whole entry): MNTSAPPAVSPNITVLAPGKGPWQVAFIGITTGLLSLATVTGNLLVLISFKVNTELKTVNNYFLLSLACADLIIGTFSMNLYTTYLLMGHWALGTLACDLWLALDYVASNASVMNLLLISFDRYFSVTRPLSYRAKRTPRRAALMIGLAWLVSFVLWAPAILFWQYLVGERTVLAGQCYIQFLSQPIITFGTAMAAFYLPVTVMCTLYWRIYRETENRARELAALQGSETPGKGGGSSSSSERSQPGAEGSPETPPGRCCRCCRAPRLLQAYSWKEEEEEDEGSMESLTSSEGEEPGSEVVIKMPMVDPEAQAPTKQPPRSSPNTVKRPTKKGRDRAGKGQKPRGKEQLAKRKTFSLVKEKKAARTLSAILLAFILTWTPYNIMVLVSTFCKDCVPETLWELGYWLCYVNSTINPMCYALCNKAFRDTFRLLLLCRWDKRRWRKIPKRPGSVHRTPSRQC
Experimental: (§2) Protocol. […] Bound radioactivity was determined by scintillation spectroscopy. Non-specific binding was defined as the amount of bound radioligand in the presence of 1.0 μM atropine. Radioligand for the M1 receptor was [^3H]pirenzepine (2 nM). Radioligand for the M2 receptor was [^3H]AF-DX384 (2 nM). Radioligand for the M3, M4, and M5 receptors was [^3H]4-DAMP.

[6] = molecular target: T5, human muscarinic receptor M3 (Homo sapiens, UniProt P20309); assay: Muscarinic M3 receptor binding, [3H]4-DAMP; conditions: read-out: Affinity for Muscarinic Receptors, M3, Ki
T5 construct: expressed in transfected cells; host or cells: CHO cells (membranes)
T5 sequence (P20309 whole entry): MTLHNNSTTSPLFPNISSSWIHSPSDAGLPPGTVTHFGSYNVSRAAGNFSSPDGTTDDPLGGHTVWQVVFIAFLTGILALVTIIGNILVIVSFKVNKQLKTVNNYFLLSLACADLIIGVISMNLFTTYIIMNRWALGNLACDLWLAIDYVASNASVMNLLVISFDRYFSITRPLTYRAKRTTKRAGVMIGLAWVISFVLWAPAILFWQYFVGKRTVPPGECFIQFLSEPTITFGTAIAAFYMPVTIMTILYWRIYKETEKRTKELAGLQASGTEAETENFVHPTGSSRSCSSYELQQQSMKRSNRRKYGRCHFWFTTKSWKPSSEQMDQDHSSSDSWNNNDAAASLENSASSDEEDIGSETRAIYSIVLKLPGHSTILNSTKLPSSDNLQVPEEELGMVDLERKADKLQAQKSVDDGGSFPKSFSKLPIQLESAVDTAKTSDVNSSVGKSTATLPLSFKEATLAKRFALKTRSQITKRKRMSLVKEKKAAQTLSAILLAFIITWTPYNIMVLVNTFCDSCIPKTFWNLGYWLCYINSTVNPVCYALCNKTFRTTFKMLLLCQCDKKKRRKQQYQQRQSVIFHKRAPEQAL
Experimental: as §2

[7] = molecular target: human NE transporter (hNET) (Homo sapiens, UniProt P23975); assay: NE transporter competitive binding assay, [3H]nisoxetine
human NE transporter (hNET), sequence (P23975 whole entry): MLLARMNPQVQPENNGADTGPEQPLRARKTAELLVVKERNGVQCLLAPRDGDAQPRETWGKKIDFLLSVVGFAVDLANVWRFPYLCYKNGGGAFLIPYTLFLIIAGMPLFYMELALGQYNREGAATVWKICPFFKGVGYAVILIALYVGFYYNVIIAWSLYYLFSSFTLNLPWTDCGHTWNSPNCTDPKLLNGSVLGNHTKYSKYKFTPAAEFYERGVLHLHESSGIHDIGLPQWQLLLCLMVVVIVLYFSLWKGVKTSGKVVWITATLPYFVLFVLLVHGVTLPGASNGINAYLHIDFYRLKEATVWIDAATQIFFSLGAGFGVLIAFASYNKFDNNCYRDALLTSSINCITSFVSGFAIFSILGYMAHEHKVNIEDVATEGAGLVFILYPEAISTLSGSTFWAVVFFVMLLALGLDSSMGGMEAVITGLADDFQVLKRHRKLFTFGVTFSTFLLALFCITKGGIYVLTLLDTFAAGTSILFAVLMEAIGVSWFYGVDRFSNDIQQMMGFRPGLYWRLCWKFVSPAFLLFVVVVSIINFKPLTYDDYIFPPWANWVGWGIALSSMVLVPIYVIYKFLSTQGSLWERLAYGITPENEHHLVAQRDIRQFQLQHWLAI
Experimental: (§3) Protocol. […] Bound radioactivity was determined by scintillation spectroscopy. Non-specific binding was defined as the amount of binding that occurred in the presence of 1.0 μM desipramine. The Ki values of the various test compounds were determined using standard methods.
as §3

[8] = test system: gastrointestinal transit in Swiss-Webster mice; assay: Mouse gastrointestinal transit (charcoal meal) assay; format: in vivo; conditions: relative to sterile water vehicle, 1, 2 or 4 hours before charcoal meal
Experimental: Protocol. The inhibitory effect of AT, NT and (−)-E-10-OH-NT were assessed in a rodent model of gastrointestinal transit. For the assay, male Swiss-Webster mice (20-25 g) were fasted overnight and treated with test compound or sterile water vehicle control 1, 2 or 4 hours before per oral administration of a charcoal meal consisting of charcoal:flour:water (1:2:8, w:w:w). Gastrointestinal transit was measured 25 minutes after the charcoal meal. (−)-E-10-OH-NT was administered as either the maleate or succinate salt; AT and NT were administered as hydrochloride salts; the dosage amounts are based on the amount of free base.
Gastrointestinal transit (GIT) was determined by removing the entire length of the small intestine and measuring how far the leading edge of the charcoal meal traveled in the small intestine. The percent GIT (% GIT) was determined by the following formula:
% GIT=[distance to charcoal leading edge (cm)/length of small intestine (cm)×100]

[9] = Example 4, read-out: Monoamine Transporter Affinity, 5HT, Ki
[10] = Example 4, read-out: Monoamine Transporter Affinity, NE, Ki

SMILES	antiallodynic activity [1]	IC50 [2]	reduction of H1 histaminergic receptor affinity compared to AT [3]	reduction of H1 histaminergic receptor affinity compared to NT [3]	Ki [4, 9]	Ki ([4]; Example 14, read-out: SERT Ki)	Ki [5]	Ki [6]	Ki [7, 10]	Ki ([7]; Example 14, read-out: NET Ki)	antiallodynic activity, oral ([1]; p.o. and 60 mg/kg p.o.)	inhibition of gastrointestinal transit (% GIT) [8]
CNCC/C=C1\c2ccccc2C[C@H](O)c2ccccc21 (stereo in doubt) [(+)-E-10-OH-NT]	comparable to that of the vehicle-only control	860 nM	220 fold	40 fold	400 nM	361 nM	710 nM	820 nM	52 nM	95 nM	–	–
CNCC/C=C1\c2ccccc2C[C@@H](O)c2ccccc21 (stereo in doubt) [(−)-E-10-OH-NT]	statistically significant over that observed for the vehicle-treated control group; also recorded: greater than that observed for the vehicle-treated control group	4400 nM	220 fold	40 fold	660 nM	617 nM	410 nM	390 nM	44 nM	81 nM	greater than that observed for the vehicle-treated control	markedly lower inhibition of transit as compared to both AT and NT
